One compound from US6624165B2, “Cyclopentene derivatives useful as antagonists of the motilin receptor” (Ortho-McNeil Pharmaceutical, Inc., priority 2000, dated 2003) can be followed below.

The target in this assay is T1, motilin receptors located on the colon of mature rabbits (Oryctolagus cuniculus, UniProt G1T803).
T1 construct: The muscle tissues were homogenized in 10 volumes of buffer; from tissue; host or cells: colon smooth muscle of mature New Zealand rabbits, crude membrane homogenate
T1 sequence (G1T803 1-400): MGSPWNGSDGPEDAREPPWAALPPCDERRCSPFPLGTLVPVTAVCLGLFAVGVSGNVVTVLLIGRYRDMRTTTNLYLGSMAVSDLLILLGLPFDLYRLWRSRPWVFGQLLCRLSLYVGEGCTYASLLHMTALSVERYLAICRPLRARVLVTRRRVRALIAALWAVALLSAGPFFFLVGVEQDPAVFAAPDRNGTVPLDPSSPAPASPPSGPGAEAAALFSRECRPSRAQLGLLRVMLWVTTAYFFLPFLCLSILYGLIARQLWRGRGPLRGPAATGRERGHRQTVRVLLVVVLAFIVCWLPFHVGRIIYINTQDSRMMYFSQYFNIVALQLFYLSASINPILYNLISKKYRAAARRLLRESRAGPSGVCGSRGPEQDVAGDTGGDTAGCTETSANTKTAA
Description: Competition with radiolabeled motilin (porcine) for motilin receptors of rabbit colon membranes. Format: binding. The note with it: @100 nM, I125 motilin (porcine). The procedure: A compound of the invention was tested for its ability to compete with radiolabeled motilin (porcine) for the motilin receptors located on the colon of mature rabbits. The colon from mature New Zealand rabbits was removed, dissected free from the mucosa and serosa layers, and diced into small pieces. The muscle tissues were homogenized in 10 volumes of buffer (50 mM Tris-Cl 10 MM MgCl2, 0.1 mg/mL bactracin, and 0.25 mM Peflabloc, pH 7.5) in a Polytron (29,000 rpm, 4×15 seconds). The homogenate was centrifuged at 1000×g for 15 min. and the supernatant discarded. The pellet was washed twice before being suspended in homogenizing buffer. This crude homogenate was then passed first through a 19 gauge needle then a 23 gauge needle to further suspend the material and stored at −80° C. […] The pellet was counted in the gamma counter to determine the percentage of […] motilin and thereby the percent inhibition of the test compound.
% Inhibition was Determined by Standard Techniques

One may read the % Inhibition as the change of the read-out against control, counted positive when it falls. Lower therefore signals little suppression.

Turning to `O=C(Nc1nncs1)N(CC1=CC(Cc2ccccc2)(NC(=O)C(Cl)(Cl)Cl)CC1)c1cccc(OCCN2CCOCC2)c1` (stereo not shown) [Example 2, 3-Benzyl-3-trichloroacetylamino—N-[(3-(2-morpholinoethoxy)phenyl)-N-[(1,3,4-thiadiazol-2-yl)aminocarbonyl)amino]methylcyclopentene], the “% Inhibition” value came to 17%.
